Data published in article PMC12693701, “Glucosinolate-Derived Metabolites from Barbarea vulgaris (Brassicaceae): Evaluation of Antimicrobial, Antioxidant, and Anti-Inflammatory Potentials” (Molecules, 2025).
In brackets after ≈: the same amount, converted by molar mass.

How the values were obtained:
[1] = tested on: C. albicans ATCC 10231; experiment: Microdilution MIC/MMC with resazurin; format: cell-based, Candida albicans; settings: C. albicans ATCC 10231, reference antibiotics/antimycotic; for MIC: Candida albicans, ATCC10231, read-out: MIC
Protocol: (§1) The antimicrobial activity was evaluated against 15 microorganisms. This included 11 bacterial strains: four standard strains (Staphylococcus aureus ATCC 25923, Bacillus subtilis ATCC 6633, Bacillus pumilus NCTC 8241, and Escherichia coli ATCC 25922) and six clinical or environmental isolates (Staphylococcus aureus, Escherichia coli, Bacillus cereus, Proteus mirabilis, Salmonella enterica, and Klebsiella pneumoniae). One probiotic strain, Bifidobacterium animalis subsp. lactis was tested. In addition, four fungal strains, Candida albicans ATCC 10231, Trichoderma viride ATCC 13233, Aspergillus flavus ATCC 9170, and Fusarium solani ATCC 11712 were tested. The bacterial strains were kept in glycerol stock at −80 °C and the fungal strains in paraffin oil stock at 4 °C.
(§2) Bacterial and yeast suspensions were prepared using the direct colony method, as previously described by Andrews. The turbidity of the initial suspensions was adjusted to match the 0.5 McFarland standard using a densitometer (Biosan, Riga, Latvia), corresponding to approximately 10^8 colony-forming units (CFU)/mL for bacterial cells and 10^6 CFU/mL for yeast cells. Subsequently, 1:100 dilutions of the initial suspensions were prepared in sterile 0.85% saline. Fungal spore suspensions were obtained by gently harvesting spores from agar slopes containing mature mycelial growth. The collected spore suspensions were then diluted 1:1000 in sterile 0.85% saline prior to use.
(§3) Antimicrobial activity was evaluated by determining the minimum inhibitory concentration (MIC) and minimum microbicidal concentration (MMC) using the microdilution plate method with resazurin as an indicator [28]. In the 96-well plates, 100 μL of Mueller–Hinton broth (Torlak, Belgrade, Serbia) for bacterial testing and Sabouraud broth (Torlak, Belgrade, Serbia) for fungal testing were dispensed into each well. The compounds under investigation were initially dissolved in a 10% dimethyl sulfoxide (DMSO) solution, followed by dilution in sterile distilled water, resulting in a working compound solution containing 1% DMSO. A 100 μL aliquot of the stock solution of the tested compound was added to the first row, and twofold serial dilutions were then carried out using a multichannel pipette. The resulting concentration range was from 5 to 0.039 mg/mL. The inoculated microtiter plates were incubated at 37 °C for 24 h for bacteria, at 28 °C for 48 h for yeasts, and at 28 °C for 72 h for molds.
(§4) Each test also included growth control and sterility control. All tests were conducted in duplicate. MIC was defined as the lowest concentration of tested compounds that prevented resazurin color change from blue to pink. For molds, MIC values of the tested compound were determined as the lowest concentration that inhibited visible mycelia growth. MMC was determined by inoculation of the nutrient agar medium by plating […] of samples from wells, where no indicator color change was recorded. At the end of the incubation period, the lowest concentration with no growth (no colony) was defined as MMC.
(§5) Doxycycline, ampicillin and amphotericin B (- Sigma-Aldrich, St. Louis, MO, USA) and ketoconazole (Hemofarm A.D., Vršac, Serbia) were dissolved in a nutrient liquid medium. Doxycycline is a broad-spectrum antibiotic effective against both aerobic and anaerobic Gram-positive and Gram-negative bacteria. Ampicillin, a beta-lactam antibiotic, primarily targets Gram-positive bacteria but also some Gram-negative strains. Amphotericin B is an antifungal drug often used for serious systemic fungal infections and is one of the effective treatments for fungal infections caused by Aspergillus sp. Ketoconazole is an antifungal agent used to inhibit the growth of Candida species.

[2] = tested on: T. viride ATCC 13233; experiment: Microdilution MIC/MMC; format: cell-based, Trichoderma viride; settings: T. viride ATCC 13233, reference antibiotics/antimycotic; for MIC: Trichoderma viride, ATCC13233, read-out: MIC
Protocol: as §1, §2, §3, §4, §5

[3] = tested on: A. flavus ATCC 9170; experiment: Microdilution MIC/MMC; format: cell-based, Aspergillus flavus; settings: A. flavus ATCC 9170, reference antibiotics/antimycotic; for MIC: Aspergillus flavus, ATCC9170, read-out: MIC
Protocol: as §1, §2, §3, §4, §5

[4] = tested on: B. subtilis ATCC 6633; experiment: Microdilution MIC/MMC with resazurin; format: cell-based, Bacillus subtilis; settings: B. subtilis ATCC 6633, reference antibiotics/antimycotic; for MIC: Bacillus subtilis, ATCC6633, read-out: MIC
Protocol: as §1, §2, §3, §4, §5

[5] = tested on: B. cereus; experiment: Microdilution MIC/MMC with resazurin; format: cell-based, Bacillus cereus; settings: B. cereus, reference antibiotics/antimycotic; for MIC: Bacillus cereus, read-out: MIC
Protocol: as §1, §2, §3, §4, §5

[6] = tested on: B. pumilus NCTC 8241; experiment: Microdilution MIC/MMC with resazurin; format: cell-based, Bacillus pumilus; settings: B. pumilus NCTC 8241, reference antibiotics/antimycotic
Protocol: as §1, §2, §3, §4, §5

[7] = tested on: B. animalis subsp. lactis; experiment: Microdilution MIC/MMC with resazurin; format: cell-based, Bifidobacterium animalis subsp. lactis; settings: B. animalis subsp. lactis, reference antibiotics/antimycotic; for MIC: Bifidobacterium animalis, read-out: MIC
Protocol: as §1, §2, §3, §4, §5

[8] = tested on: S. aureus ATCC 25923; experiment: Microdilution MIC/MMC with resazurin; format: cell-based, Staphylococcus aureus; settings: S. aureus ATCC 25923, reference antibiotics/antimycotic; for MIC: Staphylococcus aureus, ATCC25923, read-out: MIC
Protocol: as §1, §2, §3, §4, §5

[9] = tested on: S. aureus; experiment: Microdilution MIC/MMC with resazurin; format: cell-based, Staphylococcus aureus; settings: S. aureus isolate, reference antibiotics/antimycotic; for MIC: Staphylococcus aureus, read-out: MIC
Protocol: as §1, §2, §3, §4, §5

[10] = tested on: E. coli ATCC 25922; experiment: Microdilution MIC/MMC with resazurin; format: cell-based, Escherichia coli; settings: E. coli ATCC 25922, reference antibiotics/antimycotic; for MIC: Escherichia coli, ATCC25922, read-out: MIC
Protocol: as §1, §2, §3, §4, §5

[11] = tested on: E. coli; experiment: Microdilution MIC/MMC with resazurin; format: cell-based, Escherichia coli; settings: E. coli isolate, reference antibiotics/antimycotic; for MIC: Escherichia coli, read-out: MIC
Protocol: as §1, §2, §3, §4, §5

[12] = tested on: P. mirabilis; experiment: Microdilution MIC/MMC with resazurin; format: cell-based, Proteus mirabilis; settings: P. mirabilis, reference antibiotics/antimycotic; for MIC: Proteus mirabilis, read-out: MIC
Protocol: as §1, §2, §3, §4, §5

[13] = tested on: S. enterica; experiment: Microdilution MIC/MMC with resazurin; format: cell-based, Salmonella enterica; settings: reference antibiotics/antimycotic; for MIC: Salmonella enterica
Protocol: as §1, §2, §3, §4, §5

[14] = tested on: K. pneumoniae; experiment: Microdilution MIC/MMC with resazurin; format: cell-based, Klebsiella pneumoniae; settings: K. pneumoniae, reference antibiotics/antimycotic; for MIC: Klebsiella pneumoniae, read-out: MIC
Protocol: as §1, §2, §3, §4, §5

[15] = tested on: F. solani ATCC 11712; experiment: Microdilution MIC/MMC; format: cell-based, Fusarium solani; settings: F. solani ATCC 11712, reference antibiotics/antimycotic
Protocol: as §1, §2, §3, §4, §5

[16] = ABTS radical scavenging assay; settings: mean ± SD
Protocol: The ABTS radical cation solution was prepared following the previously described protocol. Different concentrations of the analyzed samples were prepared in DMSO. The test samples were prepared following the specified procedure: 20 µL of sample was combined with 980 µL of methanol, followed by the addition of 1000 µL of ABTS solution. Absorbance was measured at 734 nm. All measurements were performed in triplicate.

SMILES	MMC [1] [µg/mL]	MIC [1] [µg/mL]	MMC [2] [µg/mL]	MIC [2] [µg/mL]	MMC [3] [µg/mL]	MIC [3] [µg/mL]	MMC [4] [µg/mL]	MIC [4] [µg/mL]	MMC [5] [µg/mL]	MIC [5] [µg/mL]	MMC [7] [µg/mL]	MIC [7] [µg/mL]	MMC [8] [µg/mL]	MIC [8] [µg/mL]	MMC [9] [µg/mL]	MIC [9] [µg/mL]	MMC [10] [µg/mL]	MIC [10] [µg/mL]	MMC [11] [µg/mL]	MIC [11] [µg/mL]	also measured
C[C@@H]1[C@H](O)[C@@H](C)/C=C/C=C/C=C/C=C/C=C/C=C/C=C/[C@H](O[C@@H]2O[C@H](C)[C@@H](O)[C@H](N)[C@@H]2O)C[C@@H]2O[C@](O)(C[C@@H](O)C[C@@H](O)[C@H](O)CC[C@@H](O)C[C@@H](O)CC(=O)O[C@H]1C)C[C@H](O)[C@H]2C(=O)O [Amphotericin B, reference compound]	<0.098	< 0.098	1.56	0.78 (≈ 0.844 µM)	0.78	0.39 (≈ 0.422 µM)	–	–	–	–	–	–	–	–	–	–	–	–	–	–	–
CC1(C)S[C@@H]2[C@H](NC(=O)[C@H](N)c3ccccc3)C(=O)N2[C@H]1C(=O)O [Ampicillin, reference compound]	–	–	–	–	–	–	4	3 (≈ 8.59 µM)	6	4 (≈ 11.4 µM)	0.12	< 0.06	0.75	0.25 (≈ 0.715 µM)	<0.06	< 0.06	0.5	0.37 (≈ 1.06 µM)	2.1	1.2 (≈ 3.43 µM)	MMC [6]: 12 µg/mL; MIC ([6]; Bacillus pumilus, NCTC8241, read-out: MIC): 8 µg/mL (≈ 22.9 µM); MMC [12]: >128 µg/mL; MIC [12]: > 128 µg/mL; MIC [13]: 1 µg/mL (≈ 2.86 µM); MMC [13]: 1 µg/mL; MMC [14]: >128 µg/mL; MIC [14]: > 128 µg/mL
C[C@H]1c2cccc(O)c2C(=O)C2=C(O)[C@]3(O)C(=O)C(C(N)=O)=C(O)[C@@H](N(C)C)[C@@H]3[C@@H](O)[C@@H]21 [Doxycycline, reference compound]	–	–	–	–	–	–	31.25	1.95 (≈ 4.39 µM)	7.81	0.977 (≈ 2.2 µM)	8	4 (≈ 9 µM)	3.75	0.224 (≈ 0.504 µM)	7.81	0.45 (≈ 1.01 µM)	31.25	15.6 (≈ 35.2 µM)	62.5	15.6 (≈ 35.2 µM)	MMC [12]: 62.5 µg/mL; MIC [12]: 15.6 µg/mL (≈ 35.2 µM); MIC [13]: 15.6 µg/mL (≈ 35.2 µM); MMC [14]: 32 µg/mL; MIC [14]: 2 µg/mL (≈ 4.5 µM)
CC(=O)N1CCN(c2ccc(OCC3COC(Cn4ccnc4)(c4ccc(Cl)cc4Cl)O3)cc2)CC1 (stereo not shown) [Ketoconazole, reference compound]	1.96	1.96 (≈ 3.69 µM)	125	62.5 (≈ 118 µM)	1.96	< 0.49	–	–	–	–	–	–	–	–	–	–	–	–	–	–	MMC [15]: 0.156 µg/mL; MIC ([15]; Fusarium solani, ATCC11712, read-out: MIC): 0.08 µg/mL (≈ 0.151 µM)
Cc1c(C)c2c(c(C)c1O)CCC(C)(C(=O)O)O2 (stereo not shown) [Trolox, reference compound]	–	–	–	–	–	–	–	–	–	–	–	–	–	–	–	–	–	–	–	–	ABTS Scavenging Ability ([16]; 25 µM): 97.5 ± 0.2%; ABTS Scavenging Ability ([16]; 50 µM): 99.3 ± 0.1%; ABTS Scavenging Ability ([16]; 100 µM): 99.5 ± 0.3%
